Experimental data: PubChem BioAssay (NCI)
Where “and” joins values, the source holds several entries; their conditions need not be identical. Identical values can stand only once.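 Briefly, cells in 96-well plates were exposed to five compound concentrations for 48 h, and endpoints were estimated by linear interpolation. Here, GI50 denotes the concentration required for 50% inhibition of growth. Definition used: TGI = concentration required for complete inhibition of growth.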

Experiments:
Test in all cases: growth of human tumour cells (NCI), 48 h
IGROV1 ovarian = system: IGROV1 ovarian
COLO 205 colon = system: COLO 205 colon
MCF7 breast = system: MCF7 breast
SNB-75 CNS = system: SNB-75 CNS
NCI-H460 lung = system: NCI-H460 lung
K-562 leukemia = system: K-562 leukemia
NCI-H522 lung = system: NCI-H522 lung
U251 CNS = system: U251 CNS
NCI-H23 lung = system: NCI-H23 lung
A498 renal = system: A498 renal

| Structure (SMILES) | GI50 (IGROV1 ovarian) [µM] | TGI (IGROV1 ovarian) | GI50 (COLO 205 colon) [µM] | TGI (COLO 205 colon) | GI50 (MCF7 breast) [µM] | TGI (MCF7 breast) | GI50 (SNB-75 CNS) [µM] | TGI (SNB-75 CNS) | GI50 (NCI-H460 lung) [µM] | TGI (NCI-H460 lung) | GI50 (K-562 leukemia) [µM] | TGI (K-562 leukemia) | GI50 (NCI-H522 lung) [µM] | TGI (NCI-H522 lung) | GI50 (U251 CNS) [µM] | TGI (U251 CNS) | GI50 (NCI-H23 lung) [µM] | TGI (NCI-H23 lung) | GI50 (A498 renal) [µM] | TGI (A498 renal) |
| --- | --- | --- | --- | --- | --- | --- | --- | --- | --- | --- | --- | --- | --- | --- | --- | --- | --- | --- | --- | --- |
| O=C1NC(=O)N(S(=O)(=O)c2cc(C(=O)Nc3ccc(Cl)cc3)c(Cl)cc2S)S(=O)(=O)N1 | 24.1 | 51.6 µM | 11 | > 100 µM | 23.6 | 91.8 µM | 38.9 | > 100 µM | 16.3 | 40.3 µM | 12.3 | 34.1 µM | 21.1 | 50.6 µM | 15.1 | 34.3 µM | 18.5 | 34.3 µM | 15.5 | 30.1 µM |
| Oc1c(Br)cc(Cl)cc1C(c1cc(Cl)cc(Br)c1O)C(Cl)(Cl)Cl | 3.95 | 16.7 µM | 1.87 | 3.51 µM | 2.83 | 10.9 µM | 2.64 | 12.3 µM | 2.4 | 8.53 µM | 0.832 | 16.8 µM | 1.86 | 6.07 µM | 2.18 | 10.9 µM | 1.8 | 7.01 µM | 1.69 | 8.24 µM |
| CC1=C(C(=O)Nc2ccc3[nH]ncc3c2)C(c2ccc(F)cc2)N=C(c2ccc(C(F)(F)F)nc2)N1 (stereo not given) | 5.66 | > 25 µM | > 25 | > 25 µM | 7.71 | > 25 µM | 2.4 | 15.9 µM | 11.8 | > 25 µM | 10 | > 25 µM | 7.06 | > 25 µM | 17.1 | > 25 µM | 12.8 | > 25 µM | 2.23 | 9.32 µM |
| N=C(N)SCc1ccc(Cl)c2ccccc12 (tested in a mixture with another compound) |  | 29 µM and 30.8 µM |  | 23.9 µM and 19.9 µM |  | 24.7 µM and 27.9 µM |  | 23.1 µM and 19.2 µM |  | 22.4 µM and 21 µM |  | 19.4 µM and 10.1 µM |  | 18.7 µM and 23.9 µM |  | 25.7 µM and 23.6 µM |  | 29 µM and 29.2 µM |  | 22.5 µM and 23.2 µM |
| COc1ccccc1CNCCCN1C(=O)c2ccc3c4c(ccc(c24)C1=O)C(=O)N(CCCNCc1ccccc1OC)C3=O | 0.148 | 0.399 µM | 0.121 | 0.256 µM | 0.108 | 0.329 µM | 0.283 | 0.754 µM | 0.167 | 0.421 µM | 0.265 | 0.83 µM | 0.145 | 0.307 µM | 0.164 | 0.447 µM | 0.179 | 0.443 µM | 1.21 | 2.5 µM |
| COc1ccc([C@@H]2[C@@H](Oc3ccccc3)C(=O)N2c2cc(OC)c(OC)c(OC)c2)cc1F | 0.257 | > 100 µM | 0.235 | 0.972 µM | 0.0409 | > 100 µM | 0.0567 | > 100 µM | 0.155 | > 100 µM | 0.0417 | > 100 µM | 0.0276 | 0.332 µM | 0.185 | > 100 µM | 0.7 | > 100 µM | 0.0238 | 0.0983 µM |
